Experimental data reported in patent US8163509B2, “Biological markers predictive of anti-cancer response to insulin-like growth factor-1 receptor kinase inhibitors” (The Regents of the University of Colorado, A Body Corporate, priority 2008, dated 2012).

Key:
[1] = molecular target: T1, IGF1R (Homo sapiens, UniProt P08069); experiment: Meso Scale Discovery (MSD) assay of phosphorylated IGF1R; format: cell-based; settings: HT29 and HCT116, 72 h
T1 construct: endogenous in cells; host or cells: HT29 and HCT116 CRC cell lines
Experimental: Detection of IGF1R using Meso Scale Discovery assays (MSD): HT29 and HCT116 CRC cell lines were seeded into 6-well plates, allowed to attach for 24 hours and exposed to PQIP and chemotherapy (SN38, or Oxaliplatin) alone or in combination for 72 h. Following exposure, cells were rinsed with PBS and scraped into RIPA lysis buffer containing protease inhibitors, EDTA, NaF, and sodium orthovanadate. Total protein was quantified using the BioRad Dc Protein Assay (BioRad, Hercules, Calif.). Fifty micrograms of protein in 25 μL was added per well for MSD detection of phosphorylated IGF-1R according to manufacturer's instructions (Meso Scale Discovery, Gaithersburg, Md.).
Cells were exposed to PQIP (0.4 μmol/L) and chemotherapy (SN38 0.004 μmol/L, or Oxaliplatin 1.0 μmol/L) alone or in combination for 72 h. Protein was extracted and analyzed for phospho/total IGF1R levels using a Meso Scale Discovery (MSD; Gaithersburg, Md. 20877) assay.

[2] = tested on: human tumor explants; experiment: In vivo growth study, primary CRC xenografts (human tumor explants); parameters: species or system athymic nude mice; settings: OSI-906 40 mg/kg, 28 days
Experimental: In vivo Growth Studies: Five to six-week-old female athymic nude mice (Harlan Sprague Dawley) were used. The research protocol was approved by the University of Colorado Denver, Animal Care and Use Committee. Mice were caged in groups of five and kept on 12-h light/dark cycle and provided with sterilized food and water ad libitum. All of the studies were conducted in accordance with the NIH guidelines for the care and use of laboratory animals, and animals were housed in a facility accredited by the American Association for Accreditation of Laboratory Animal Care. Animals were allowed to acclimate for at least 7 days before any handling.
The primary CRC xenografts were generated according to published methodology (Rubio-Viqueira B, et al. Clin Cancer Res 2006; 12(15):4652-61.). Briefly, surgical specimens of patients operated at the University of Colorado Hospital were reimplanted s.c. to 5 mice for each patient. […] Mice were monitored daily for signs of toxicity and were weighed twice weekly. Tumor size was evaluated two times per week by caliper measurements using the following formula: tumor volume=[length×width^2][…]. Relative tumor growth index was calculated by relative tumor growth of treated mice divided by relative tumor growth of control mice since the initiation of therapy (T/C). […]

T1 sequence (P08069 31-1367): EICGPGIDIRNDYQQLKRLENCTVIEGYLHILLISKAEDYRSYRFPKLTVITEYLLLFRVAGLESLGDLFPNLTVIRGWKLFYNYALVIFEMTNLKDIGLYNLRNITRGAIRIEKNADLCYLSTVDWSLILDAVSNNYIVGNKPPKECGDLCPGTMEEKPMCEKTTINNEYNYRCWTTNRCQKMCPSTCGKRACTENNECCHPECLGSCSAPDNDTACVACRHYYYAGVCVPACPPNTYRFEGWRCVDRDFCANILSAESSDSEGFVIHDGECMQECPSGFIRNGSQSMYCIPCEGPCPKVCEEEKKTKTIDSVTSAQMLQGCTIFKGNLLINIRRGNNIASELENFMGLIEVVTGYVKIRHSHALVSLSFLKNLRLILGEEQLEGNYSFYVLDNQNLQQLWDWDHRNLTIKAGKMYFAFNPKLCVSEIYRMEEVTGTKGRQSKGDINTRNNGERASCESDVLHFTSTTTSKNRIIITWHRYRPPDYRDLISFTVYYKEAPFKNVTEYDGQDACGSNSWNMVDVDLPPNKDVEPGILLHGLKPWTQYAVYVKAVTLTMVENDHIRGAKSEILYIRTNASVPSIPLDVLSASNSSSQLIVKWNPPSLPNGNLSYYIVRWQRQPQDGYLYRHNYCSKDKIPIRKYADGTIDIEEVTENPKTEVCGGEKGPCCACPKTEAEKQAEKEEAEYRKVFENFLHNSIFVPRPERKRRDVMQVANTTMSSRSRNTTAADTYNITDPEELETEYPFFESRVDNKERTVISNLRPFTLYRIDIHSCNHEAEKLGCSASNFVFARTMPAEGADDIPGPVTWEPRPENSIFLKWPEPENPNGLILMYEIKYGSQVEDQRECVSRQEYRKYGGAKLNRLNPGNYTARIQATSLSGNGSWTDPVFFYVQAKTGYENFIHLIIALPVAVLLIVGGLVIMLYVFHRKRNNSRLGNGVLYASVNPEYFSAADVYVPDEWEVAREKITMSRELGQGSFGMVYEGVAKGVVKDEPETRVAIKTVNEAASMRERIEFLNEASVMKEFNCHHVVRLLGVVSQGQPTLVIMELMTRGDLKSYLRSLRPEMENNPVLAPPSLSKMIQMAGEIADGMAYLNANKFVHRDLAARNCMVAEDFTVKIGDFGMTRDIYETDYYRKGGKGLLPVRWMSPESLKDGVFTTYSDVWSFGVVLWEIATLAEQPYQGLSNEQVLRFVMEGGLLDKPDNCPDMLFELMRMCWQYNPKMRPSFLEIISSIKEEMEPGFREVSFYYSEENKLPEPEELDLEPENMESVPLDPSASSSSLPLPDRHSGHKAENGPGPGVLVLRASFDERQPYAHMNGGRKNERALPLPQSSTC

effect on phosphorylated IGF1R, PQIP in combination with SN38 or Oxaliplatin ([1]; PQIP 0.4 μmol/L plus SN38 0.004 μmol/L or Oxaliplatin 1.0 μmol/L) | effect on phosphorylated IGF1R, agent alone ([1]; PQIP 0.4 μmol/L, SN38 0.004 μmol/L, Oxaliplatin 1.0 μmol/L) | Structure (SMILES) | TGI (relative tumor growth index, T/C) ([2]; three explants predicted as resistant) | TGI (relative tumor growth index, T/C) ([2]; two explants predicted as sensitive)
inhibited | inhibited | CN1CCN([C@H]2C[C@@H](c3nc(-c4ccc5ccc(-c6ccccc6)nc5c4)c4c(N)nccn43)C2)CC1 [PQIP, cis-3-[3-(4-Methyl-piperazin-1-yl)-cyclobutyl]1-(2-phenyl-quinolin-7-yl)-imidazo[1,5-a]pyrazin-8-ylamine] |  | 
 |  | C[C@]1(O)C[C@@H](c2nc(-c3ccc4ccc(-c5ccccc5)nc4c3)c3c(N)nccn32)C1 [OSI-906, cis-3-[8-amino-1-(2-phenyl-quinolin-7-yl)-imidazo[1,5-a]pyrazin-3-yl]-1-methyl-cyclobutanol] | 130-200% | 21-28%
